Data reported in paper PMC11078746 (Nature, 2024).
Where “and” joins values, the source holds several entries; their conditions need not be identical. Equal values may be shown once.

Experiment: Mouse body weight, SW48 xenograft study with HRO761
Format: in vivo
Design: Body weight change, individual animals / Body weight change, group mean: unit not given here
Details: for Body weight change, group mean / Body weight change, individual animals: SW48 xenograft-bearing mice
Method: All animal studies were conducted in accordance with ethics and procedures covered by permit BS-2275 and BS-1975 issued by the Kantonales Veterinäramt Basel-Stadt and in strict adherence to guidelines of the Eidgenössisches Tierschutzgesetz and the Eidgenössische Tierschutzverordnung, Switzerland. All animal studies were approved by the internal ethics committee. All animals had access to food and water ad libitum and were identified with transponders. They were housed in a specific-pathogen-free facility in IVC racks under a 12 h–12 h light–dark cycle. To establish cell-line-derived xenograft models, 6–7-week-old female athymic nude (Crl:NU(NCr)-Foxn1^nu) or SCID-BEIGE (CB17.Cg-PrkdcscidLystbg-J/Crl) mice from Charles River were engrafted subcutaneously with 5 million tumour cells in HBSS (H6648, Sigma-Aldrich). For SNU-407, Lovo, IM95, RL95.2, Ishikawa and IGROV-1, the cells were concentrated in 50% Matrigel (354234, Corning). Patient-derived xenografts were induced and expanded by transplantation as previously described. […] For the efficacy experiment, mice were randomized into groups (n = 5–6) for a mean tumour size of 100–150 mm^3. […] Blood samples were collected on day 7 and 91. […] Tumour responses are reported with the measures of tumour volumes from the treatment start. […] Animals were randomized (n = 3) and tumour samples were collected at 0, 1, 4, 8 and 24 h on the first day and then collected 4 h after the last treatment on day 3, 8, 10, 14 (including a 24 h timepoint), 17 and 21. Tumours were excised, weighed, either frozen in liquid nitrogen and cryogenic dry pulverized with the CryoPrep system (model CP-02, Covaris) or processed to FFPE after fixation. […] On day 12, blood samples were collected for PK analysis. On the last day (3 h after the last treatment), tumours were excised, weighed, frozen in liquid nitrogen and cryogenic dry pulverized for PD analysis.

[1] = HRO761 120mg/kg, day 0 post 1st dose

CCc1c(N2CCN(C(=O)c3ncnc(C)c3O)CC2)c(=O)n2nc(C3=CCOCC3)nc2n1CC(=O)Nc1ccc(C(F)(F)F)cc1Cl [HRO761]
Mean DBW (HRO761 60mg/kg, day 24 post 1st dose): 2.43%
Mean DBW (HRO761 60mg/kg, day 28 post 1st dose): 5.12%
Mean DBW (HRO761 60mg/kg, day 31 post 1st dose): 5.38%
Mean DBW (HRO761 60mg/kg, day 35 post 1st dose): 4.36%
Mean DBW (HRO761 60mg/kg, day 38 post 1st dose): 2.35%
Mean DBW (HRO761 60mg/kg, day 42 post 1st dose): 3.45%
Mean DBW (HRO761 60mg/kg, day 45 post 1st dose): 2.45%
Mean DBW (HRO761 60mg/kg, day 49 post 1st dose): 3.51%
Mean DBW (HRO761 60mg/kg, day 52 post 1st dose): 2.35%
Mean DBW (HRO761 60mg/kg, day 56 post 1st dose): 2.93%
Mean DBW (HRO761 60mg/kg, day 59 post 1st dose): 4.86%
Mean DBW (HRO761 60mg/kg, day 63 post 1st dose): 4.98%
Mean DBW (HRO761 60mg/kg, day 66 post 1st dose): 5.96%
Mean DBW (HRO761 60mg/kg, day 70 post 1st dose): 5.36%
Mean DBW (HRO761 60mg/kg, day 73 post 1st dose): 5.45%
Mean DBW (HRO761 60mg/kg, day 76 post 1st dose): 8.05%
Mean DBW (HRO761 60mg/kg, day 79 post 1st dose): 6.02%
Mean DBW (HRO761 60mg/kg, day 83 post 1st dose): 6.63%
Mean DBW (HRO761 60mg/kg, day 86 post 1st dose): 7.71%
Delta BW change, individual mouse [1]: 0%
Mean DBW [1]: 0.00%
Mean DBW (HRO761 120mg/kg, day 3 post 1st dose): -2.05%
Delta BW change, individual mouse (HRO761 120mg/kg, day 3 post 1st dose, 120 mg/kg): -1.24% and 0% and -5.24% and -5.96% and 2.18%
Mean DBW (HRO761 120mg/kg, day 7 post 1st dose): 0.64%
Delta BW change, individual mouse (HRO761 120mg/kg, day 7 post 1st dose, 120 mg/kg): 0% (2×) and 3.8% and -3.23% and 2.62%
Mean DBW (HRO761 120mg/kg, day 10 post 1st dose): 0.034%
Delta BW change, individual mouse (HRO761 120mg/kg, day 10 post 1st dose, 120 mg/kg): 2.07% and 3.8% and -2.42% and -4.59% and 1.31%
Mean DBW (HRO761 120mg/kg, day 14 post 1st dose): 1.43%
Delta BW change, individual mouse (HRO761 120mg/kg, day 14 post 1st dose, 120 mg/kg): 4.15% and 4.56% and -2.82% and -0.92% and 2.18%
Mean DBW (HRO761 120mg/kg, day 17 post 1st dose): 1.14%
Mean DBW (HRO761 120mg/kg, day 21 post 1st dose): 5.29%
Mean DBW (HRO761 120mg/kg, day 24 post 1st dose): 6.66%
Mean DBW (HRO761 120mg/kg, day 28 post 1st dose): 5.89%
Mean DBW (HRO761 120mg/kg, day 31 post 1st dose): 6.52%
Mean DBW (HRO761 120mg/kg, day 35 post 1st dose): 7.34%
Mean DBW (HRO761 120mg/kg, day 38 post 1st dose): 4.89%
Mean DBW (HRO761 120mg/kg, day 42 post 1st dose): 6.61%
Mean DBW (HRO761 120mg/kg, day 45 post 1st dose): 7.02%
Mean DBW (HRO761 120mg/kg, day 49 post 1st dose): 8.54%
Mean DBW (HRO761 120mg/kg, day 52 post 1st dose): 5.69%
Mean DBW (HRO761 120mg/kg, day 56 post 1st dose): 7.31%
Mean DBW (HRO761 120mg/kg, day 59 post 1st dose): 8.08%
Mean DBW (HRO761 120mg/kg, day 63 post 1st dose): 9.90%
Mean DBW (HRO761 120mg/kg, day 66 post 1st dose): 9.60%
Mean DBW (HRO761 120mg/kg, day 70 post 1st dose): 9.57%
Mean DBW (HRO761 120mg/kg, day 73 post 1st dose): 7.95%
Mean DBW (HRO761 120mg/kg, day 76 post 1st dose): 11.43%
Mean DBW (HRO761 120mg/kg, day 79 post 1st dose): 9.25%
Mean DBW (HRO761 120mg/kg, day 83 post 1st dose): 10.23%
Mean DBW (HRO761 120mg/kg, day 86 post 1st dose): 9.35%
Body weight change, group mean (HRO761 40mg/kg, day 90 post 1st dose): 13.42
Body weight change, individual animals (HRO761 40mg/kg, day 90 post 1st dose, 40 mg/kg): 12.73 and 18.18 and 7.58 and 10.23 and 18.39
Body weight change, group mean (HRO761 40mg/kg, day 92 post 1st dose): 10.60
Body weight change, individual animals (HRO761 40mg/kg, day 92 post 1st dose, 40 mg/kg): 10.45 and 10.82 and 5.05 and 12.5 and 14.18
Body weight change, group mean (HRO761 60mg/kg, day 90 post 1st dose): 7.89
Body weight change, individual animals (HRO761 60mg/kg, day 90 post 1st dose, 60 mg/kg): 7.66 and 9.39 and 10.88 and 1.67 and 9.83
Body weight change, group mean (HRO761 60mg/kg, day 92 post 1st dose): 5.46
Body weight change, individual animals (HRO761 60mg/kg, day 92 post 1st dose, 60 mg/kg): 5.11 and 6.53 and 6.69 and 0.42 and 8.55
Body weight change, group mean (HRO761 120mg/kg, day 90 post 1st dose): 10.59
Body weight change, individual animals (HRO761 120mg/kg, day 90 post 1st dose, 120 mg/kg): 9.96 and 14.07 and 7.66 and 5.96 and 15.28
Body weight change, group mean (HRO761 120mg/kg, day 92 post 1st dose): 7.50
Body weight change, individual animals (HRO761 120mg/kg, day 92 post 1st dose, 120 mg/kg): 5.81 and 9.13 and 4.84 and 5.5 and 12.23
toxicity inferred from animal weight (doses up to 120 mg per kg): did not cause toxicity
